Assay results as given in ChEMBL document CHEMBL1201862, “PubChem BioAssay data set” (2004).
The source made the active and inactive calls. Rule as the data show it: actives have a measured EC50 and inactives only a lower limit.

Columns and labels:
[1] = cytotoxicity toward NIH3T3 fibroblasts, dose response, counter-screen, cell-based, ATP luminescence, mouse fibroblasts (AID 2010); type: functional;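 also: cells exposed to compound for about 90 hours before reading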
[2] = inhibitors of intracellular T. cruzi replication, confirmation, NIH3T3 host cells, beta-gal luminescence (AID 2044); type: functional, cell-based;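 also: intracellular parasites grown in NIH/3T3 mouse fibroblasts as host cells; luminescent beta-galactosidase reporter signal from transgenic T. cruzi replicating inside host cells; inhibitors lower the luminescence signal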
[3] = system: Streptococcus; test: Group A Streptococcus viability loss, dose response, counter-screen for streptokinase expression inhibitor project, luminescence, BacTiterGlo (AID 1915); type: functional, organism-based;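 also: potency for reduction of bacterial viability or growth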
[4] = system: Streptococcus sp. 'group A'; test: growth inhibition of control SK(-) GAS strain, dose response, counter-screen for streptokinase expression inhibitor project, luminescence, kanamycin, BacTiterGlo, confirmation (AID 1900); type: functional, organism-based

For `CCCOc1ccc(CNCCCOCC)cc1OC`, the EC50 [1] was > 60 µM (inconclusive) and the EC50 [2] was 344 nM (active).

In the case of `CCC(N=C(S)NC1CCCCC1)c1ccc(C(C)C)cc1` (stereo not drawn), the EC50 [3] is reported as 82 µM (active) and the EC50 [4] is reported as 10.7 µM (active).

In the case of `Cc1ccc(NC(S)=NC2CCSc3ccccc32)cc1C` (stereo not drawn), the EC50 [3] is reported as > 150 µM (not active) and the EC50 [4] is reported as 20.6 µM (active).

In the case of `COc1ccc(/C=C/c2ccncc2)cc1`, the EC50 [1] is reported as > 60 µM (not active) and the EC50 [2] is reported as 529 nM (active).

With `Cc1ccc2cc(/C=N/NC(=O)[C@H]3C[C@@H]3c3ccccc3)c(Cl)nc2c1` the EC50 [1] was > 60 µM (not active) and the EC50 [2] was 2260 nM (active).

With `N#Cc1ccccc1Cn1cc(/C=N/Nc2ccc([N+](=O)[O-])cn2)c2ccccc21` the EC50 [1] was > 60 µM (inconclusive) and the EC50 [2] was 1940 nM (active).

With `COc1cc(CNCCc2ccccc2F)ccc1OCC(=O)N1CCCCC1` the EC50 [1] was > 30 µM (not active) and the EC50 [2] was 393 nM (active).

With `COc1ccc(CN(C(=O)c2ccc(-c3ccccc3)[nH]2)C(C(=O)NC(C)(C)C)c2ccncc2)cc1` (stereo not drawn) the EC50 [1] was > 60 µM (not active) and the EC50 [2] was 706 nM (active).

With `Cc1ccccc1-n1nc(C(=O)c2cccs2)cc(-c2nc3ccccc3[nH]2)c1=N` the EC50 [3] was 3.73 µM (active) and the EC50 [4] was 2.99 µM (active).

With `Cc1cc(C)nc(N=C(NCCc2c[nH]c3ccccc23)NC(=O)Nc2ccc(Cl)c(Cl)c2)n1` the EC50 [1] was > 60 µM (not active) and the EC50 [2] was 1620 nM (active).

With `O=c1[nH]c(=O)c2cc([N+](=O)[O-])cc([N+](=O)[O-])c2[nH]1` the EC50 [1] was > 30 µM (not active) and the EC50 [2] was 1040 nM (active).

For `COC(=O)C1=CN(Cc2ccc(OC)c(OC)c2)C=C(C(=O)OC)C1c1cccs1`, the EC50 [2] was 707 nM (active).

In the case of `CN1CCN(c2ncnc3sc(-c4ccccc4)cc23)CC1`, the EC50 [1] is reported as > 60 µM (not active) and the EC50 [2] is reported as 314 nM (active).

With `CCc1ccc(CN(Cc2cccnc2)C(=O)/C=C/c2ccc(OC)cc2)cc1` the EC50 [1] was > 30 µM (not active) and the EC50 [2] was 375 nM (active).

In the case of `COc1ccccc1C(c1nnnn1Cc1ccco1)N1CCN(c2cccc(C)c2C)CC1` (stereo not drawn), the EC50 [1] is reported as > 60 µM (not active) and the EC50 [2] is reported as 1840 nM (active).

For `COc1ccccc1C(=O)NC(=S)Nc1ccc(N2CCCC2)cc1`, the EC50 [1] was > 60 µM (not active) and the EC50 [2] was 1970 nM (active).

For `CC1CCCC(C)N1S(=O)(=O)c1ccc(S(=O)(=O)NCCc2ccncc2)cc1` (stereo not drawn), the EC50 [1] was > 60 µM (not active) and the EC50 [2] was 2830 nM (active).

For `CCOc1ccc(NS(=O)(=O)c2cc(NC(=O)c3ccc(C)cc3)ccc2Cl)cc1`, the EC50 [3] was 6.62 µM (active) and the EC50 [4] was 12.5 µM (active).

In the case of `O=[N+]([O-])c1cc(-c2n[nH]c(-c3ccccc3)n2)cc([N+](=O)[O-])c1`, the EC50 [1] is reported as > 60 µM (not active) and the EC50 [2] is reported as 475 nM (active).

With `N#Cc1c(NC(=S)NC(=O)c2ccccc2)sc2c1CCN(CCc1ccccc1)C2` the EC50 [1] was > 60 µM (not active) and the EC50 [2] was 717 nM (active).

For `CC1(C)CC(=O)c2c(n(S(=O)(=O)c3ccccc3)c3ccc(NS(=O)(=O)c4ccccc4)cc23)C1`, the EC50 [1] was 10.6 µM (active) and the EC50 [2] was 1030 nM (active).

For `CCOc1cccc2sc(N(CCCN(C)C)C(=O)c3ccc(S(=O)(=O)N(C)c4ccccc4)cc3)nc12`, the EC50 [1] was > 60 µM (not active) and the EC50 [2] was 1520 nM (active).
